Reference: BindingDB's records for doi:10.1021/bi990204w (National Institute of Diabetes and Digestive and Kidney …, 1999)
Where a SMILES comes first, the peptide text is derived from it. [ ]: non-standard residue; d: D form. The star is where a group is joined. dProψ(CH2NH)PheNH2 = NC(=O)[C@H](Cc1ccccc1)NC[C@H]1CCCN1*; Hydrocinnamoyl = O=C(CCc1ccccc1)*; pGlu = O=C1CC[C@@H](C(=O)O)N1

Key:
[1] = molecular target: Gastrin-releasing peptide receptor (Rattus norvegicus, UniProt P52500)
[2] = molecular target: T1, Bombesin receptor subtype-3 (Homo sapiens, UniProt P32247)
T1 sequence (P32247 whole entry): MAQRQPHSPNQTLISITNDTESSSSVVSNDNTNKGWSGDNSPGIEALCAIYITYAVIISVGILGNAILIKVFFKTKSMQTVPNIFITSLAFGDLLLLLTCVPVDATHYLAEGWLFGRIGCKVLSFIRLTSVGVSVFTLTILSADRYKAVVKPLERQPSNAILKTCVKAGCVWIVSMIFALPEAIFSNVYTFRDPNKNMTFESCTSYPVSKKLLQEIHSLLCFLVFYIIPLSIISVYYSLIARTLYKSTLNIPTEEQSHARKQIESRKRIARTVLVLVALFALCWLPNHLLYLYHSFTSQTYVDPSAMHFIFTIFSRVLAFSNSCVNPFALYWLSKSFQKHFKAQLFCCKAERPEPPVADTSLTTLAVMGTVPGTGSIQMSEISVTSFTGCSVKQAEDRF

Neuromedin-B receptor = molecular target: T2, Neuromedin-B receptor (Rattus norvegicus, UniProt P24053)
T2 sequence (P24053 whole entry): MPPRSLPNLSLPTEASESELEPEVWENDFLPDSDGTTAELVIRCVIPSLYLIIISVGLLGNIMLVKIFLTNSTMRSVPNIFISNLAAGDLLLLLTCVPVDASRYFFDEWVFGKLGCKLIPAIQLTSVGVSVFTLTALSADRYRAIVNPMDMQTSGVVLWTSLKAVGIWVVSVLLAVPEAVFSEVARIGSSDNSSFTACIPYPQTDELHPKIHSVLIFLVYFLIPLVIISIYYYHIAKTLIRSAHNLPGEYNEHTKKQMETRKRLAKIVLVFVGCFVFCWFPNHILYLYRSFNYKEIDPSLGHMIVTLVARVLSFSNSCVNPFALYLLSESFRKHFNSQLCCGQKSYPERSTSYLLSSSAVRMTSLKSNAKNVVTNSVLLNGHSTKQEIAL

Sequence of Gastrin-releasing peptide receptor (P52500 whole entry N28S): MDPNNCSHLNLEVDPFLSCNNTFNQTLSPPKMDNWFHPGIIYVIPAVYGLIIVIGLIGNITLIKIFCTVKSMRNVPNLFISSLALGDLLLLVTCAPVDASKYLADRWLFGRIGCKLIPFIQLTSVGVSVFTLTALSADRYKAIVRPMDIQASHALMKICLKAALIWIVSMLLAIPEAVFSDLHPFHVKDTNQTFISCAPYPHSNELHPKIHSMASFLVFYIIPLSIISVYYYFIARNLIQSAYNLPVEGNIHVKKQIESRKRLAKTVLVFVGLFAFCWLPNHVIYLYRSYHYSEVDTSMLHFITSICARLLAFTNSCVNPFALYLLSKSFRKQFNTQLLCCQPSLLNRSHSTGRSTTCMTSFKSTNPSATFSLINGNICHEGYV

SMILES	Ki [1]	Ki [2]	Ki (Neuromedin-B receptor)
CSCC[C@H](NC(=O)[C@H](Cc1ccccc1)NC(=O)[C@H](Cc1cnc[nH]1)NC(=O)CNC(=O)[C@@H](NC(=O)[C@H](C)NC(=O)[C@H](Cc1c[nH]c2ccccc12)NC(=O)[C@H](CCC(N)=O)NC(=O)[C@H](CC(N)=O)NC(=O)CNC(=O)[C@H](CC(C)C)NC(=O)[C@H](CCCN=C(N)N)NC(=O)[C@H](CCC(N)=O)NC(=O)[C@@H]1CCC(=O)N1)C(C)C)C(N)=O [Bombesin,Phe13]	0.00077 µM	6.6 µM	0.006 µM
CSCC[C@H](NC(=O)[C@H](Cc1ccccc1)NC(=O)[C@H](Cc1c[nH]cn1)NC(=O)CNC(=O)[C@@H](NC(=O)[C@H](C)NC(=O)[C@H](Cc1c[nH]c2ccccc12)NC(=O)[C@H](CCC(N)=O)NC(=O)[C@@H]1CCCN1C(=O)[C@@H](NC(=O)[C@@H]1CCC(=O)N1)C(C)C)C(C)C)C(N)=O [CAS_29451-71-6] ([pGlu]VPQWAVGHFM-NH2)	0.002 µM	6.9 µM	0.013 µM
CSCC[C@H](NC(=O)[C@H](Cc1ccccc1)NC(=O)[C@H](Cc1cnc[nH]1)NC(=O)CNC(=O)[C@@H](NC(=O)[C@H](CCCN=C(N)N)NC(=O)[C@H](Cc1c[nH]c2ccccc12)NC(=O)[C@H](CCC(N)=O)NC(=O)[C@H](CC(N)=O)NC(=O)CNC(=O)[C@H](CC(C)C)NC(=O)[C@H](CO)NC(=O)[C@H](CCC(N)=O)NC(=O)[C@@H]1CCC(=O)N1)C(C)C)C(N)=O [CAS_31362-50-2] ([pGlu]QSLGNQWRVGHFM-NH2)	3.2 µM	7.1 µM	> 10 µM
CSCC[C@H](NC(=O)[C@H](CC(C)C)NC(=O)[C@H](Cc1c[nH]cn1)NC(=O)CNC(=O)[C@@H](NC(=O)[C@H](C)NC(=O)[C@H](Cc1c[nH]c2ccccc12)NC(=O)[C@H](Cc1c[nH]cn1)NC(=O)[C@H](CC(N)=O)NC(=O)CNC(=O)[C@H](CCCN=C(N)N)NC(=O)[C@@H]1CCCN1C(=O)[C@H](Cc1ccc(O)cc1)NC(=O)[C@H](CCSC)NC(=O)[C@H](CCCCN)NC(=O)[C@@H](NC(=O)[C@H](CC(C)C)NC(=O)[C@@H](NC(=O)[C@@H](NC(=O)CNC(=O)CNC(=O)CNC(=O)[C@H](C)NC(=O)[C@@H]1CCCN1C(=O)[C@H](CC(C)C)NC(=O)[C@@H]1CCCN1C(=O)[C@@H](N)C(C)C)[C@@H](C)O)C(C)C)[C@@H](C)O)C(C)C)C(N)=O [CAS_93755-85-2]	–	> 10 µM	0.44 µM
CSCC[C@H](NC(=O)[C@H](Cc1ccccc1)NC(=O)[C@H](Cc1c[nH]cn1)NC(=O)CNC(=O)[C@@H](NC(=O)[C@H](C)NC(=O)[C@H](Cc1c[nH]c2ccccc12)NC(=O)[C@H](CC(C)C)NC(=O)[C@@H]1CCC(=O)N1)[C@@H](C)O)C(N)=O [CAS_125988]	0.031 µM	3.1 µM	0.46 µM
CSCC[C@H](NC(=O)[C@H](Cc1ccccc1)NC(=O)[C@H](Cc1c[nH]cn1)NC(=O)CNC(=O)[C@@H](NC(=O)[C@H](C)NC(=O)[C@H](Cc1c[nH]c2ccccc12)NC(=O)[C@H](CCC(N)=O)NC(=O)[C@@H]1CCC(=O)N1)C(C)C)C(N)=O [CAS_5486808]	0.006 µM	4.1 µM	0.007 µM
CC(C)[C@H](NC(=O)[C@H](C)NC(=O)[C@H](Cc1c[nH]c2ccccc12)NC(=O)[C@H](Cc1cnc[nH]1)NC(=O)CCc1ccccc1)C(=O)N[C@H](C)C(=O)N[C@@H](Cc1cnc[nH]1)C(=O)N1CCC[C@@H]1CN[C@@H](Cc1ccccc1)C(N)=O [CAS_l] (Hydrocinnamoyl-HWAV[dA]H-{dProψ(CH2NH)PheNH2})	0.00074 µM	–	> 10 µM
CC(C)C[C@H](NC(=O)[C@H](CC(C)C)NC(=O)[C@@H](Cc1ccccc1)NC(=O)CNC(=O)[C@@H](NC(=O)[C@H](C)NC(=O)[C@H](Cc1c[nH]c2ccccc12)NC(=O)[C@H](CCC(N)=O)NC(=O)[C@@H](Cc1ccccc1)NC(=O)CNC(=O)[C@H](CC(C)C)NC(=O)[C@H](CCCN=C(N)N)NC(=O)[C@H](CCC(N)=O)NC(=O)[C@@H]1CCC(=O)N1)C(C)C)C(N)=O [DPhe6,12,Leu14-Bn]	0.43 µM	> 10 µM	2.3 µM
CC(C)C[C@@H](CN[C@@H](Cc1ccc(Cl)cc1)C(N)=O)NC(=O)[C@H](Cc1c[nH]cn1)NC(=O)CNC(=O)[C@@H](NC(=O)[C@H](C)NC(=O)[C@H](Cc1c[nH]c2ccccc12)NC(=O)[C@H](CCC(N)=O)NC(=O)[C@H](N)Cc1ccccc1)C(C)C [DPhe6,Leu13,Psi(CH2NH),Cpa14-Bn(6-14)]	0.042 µM	> 10 µM	2.7 µM
CC(C)C[C@H](NC(=O)[C@H](Cc1cnc[nH]1)NC(=O)CNC(=O)[C@@H](NC(=O)[C@H](C)NC(=O)[C@H](Cc1c[nH]c2ccccc12)NC(=O)[C@H](CCC(N)=O)NC(=O)[C@@H](Cc1ccccc1)NC(=O)CNC(=O)[C@H](CC(C)C)NC(=O)[C@H](CCCN=C(N)N)NC(=O)[C@H](CCC(N)=O)NC(=O)[C@@H]1CCC(=O)N1)C(C)C)C(N)=O [DPhe6-Bn(1-13)NH2]	0.45 µM	> 10 µM	> 10 µM
CC(C)C[C@H](NC(=O)[C@H](Cc1cnc[nH]1)NC(=O)CNC(=O)[C@@H](NC(=O)[C@H](C)NC(=O)[C@H](Cc1c[nH]c2ccccc12)NC(=O)[C@H](CCC(N)=O)NC(=O)[C@H](N)Cc1ccccc1)C(C)C)C(N)=O [DPhe6-Bn(6-13)NH2]	0.027 µM	> 10 µM	> 10 µM
CC(C)C[C@H](NC(=O)[C@H](Cc1cnc[nH]1)NC(=O)CNC(=O)[C@@H](NC(=O)[C@H](C)NC(=O)[C@H](Cc1c[nH]c2ccccc12)NC(=O)[C@H](CCC(N)=O)NC(=O)[C@H](N)Cc1ccccc1)C(C)C)C(=O)NN(C)C [DPhe6-Bn(6-13)NHN(ME)2]	3.2 µM	> 10 µM	> 10 µM
CCCCCCNC(=O)[C@H](CC(C)C)NC(=O)[C@H](Cc1cnc[nH]1)NC(=O)CNC(=O)[C@@H](NC(=O)[C@H](C)NC(=O)[C@H](Cc1c[nH]c2ccccc12)NC(=O)[C@H](CCC(N)=O)NC(=O)[C@H](N)Cc1ccccc1)C(C)C [DPhe6-Bn(6-13)hexylamide]	0.1 µM	3.2 µM	> 10 µM
CC(C)C[C@H](NC(=O)[C@H](Cc1cnc[nH]1)NC(=O)CNC(=O)[C@@H](NC(=O)[C@H](C)NC(=O)[C@H](Cc1c[nH]c2ccccc12)NC(=O)[C@H](CCC(N)=O)NC(=O)[C@H](N)Cc1ccccc1)C(C)C)C(=O)NN [DPhe6-Bn(6-13)hydrazide]	1.2 µM	> 10 µM	> 10 µM
COC(=O)[C@H](CC(C)C)NC(=O)[C@H](Cc1cnc[nH]1)NC(=O)CNC(=O)[C@@H](NC(=O)[C@H](C)NC(=O)[C@H](Cc1c[nH]c2ccccc12)NC(=O)[C@H](CCC(N)=O)NC(=O)[C@H](N)Cc1ccccc1)C(C)C [DPhe6-Bn(6-13)methylester]	0.01 µM	5.3 µM	7.7 µM
CCCNC(=O)[C@H](CC(C)C)NC(=O)[C@H](Cc1cnc[nH]1)NC(=O)CNC(=O)[C@@H](NC(=O)[C@H](C)NC(=O)[C@H](Cc1c[nH]c2ccccc12)NC(=O)[C@H](CCC(N)=O)NC(=O)[C@H](N)Cc1ccccc1)C(C)C [DPhe6-Bn(6-13)propylamide]	0.006 µM	1.9 µM	4.6 µM
CSCC[C@H](NC(=O)[C@H](CC(C)C)NC(=O)[C@H](Cc1cnc[nH]1)NC(=O)CNC(=O)[C@@H](NC(=O)[C@H](C)NC(=O)[C@H](Cc1c[nH]c2ccccc12)NC(=O)[C@H](CCC(N)=O)NC(=O)[C@H](N)Cc1ccccc1)C(C)C)C(N)=O [DPhe6-Bn[6-14)]	0.002 µM	> 10 µM	0.014 µM
